Experimental data taken from patent US4166861A, “Pharmacologically active polyphenolic substances” (Inverni della Beffa S.p.A., priority 1976, dated 1979).
Like-named read-outs stand apart in the source and are kept apart here.

Legend:
[1] = Toxicity (LD50); assay type: in vivo; details: for LD50: in vivo
[2] = Choleretic activity in the rat, intraperitoneal administration (bile volume and dry residue); assay type: in vivo, Sprague Dawley rats; details: for Bile Volume 3 Hours after Treatment / Dry Residue 3 Hours after Treatment / increase of the dry residue of the bile in comparison with the basal values / increase of the volume of the bile in comparison with the basal values: 100 mg/kg i.p.; for Bile Volume 3 Hours after Treatment / Dry Residue 3 Hours after Treatment: awake rat; for increase of the dry residue of the bile in comparison with the basal values / increase of the volume of the bile in comparison with the basal values: measured from 1 hour to 4 hours after administration; for choleretic action (in words): Table 2, 100 mg/kg i.p., bile volume and dry residue three hours after treatment
Protocol: (§1) The choleretic activity was determined in accordance with the technique described by R. Lambert in "Surgery of the Digestive System in the Rat" 1965. Sprague Dawley rats of mean weight of 230 g. were used. The products were injected intraperitoneally at the dosage of 100 mg/kg., the volume of the bile and the corresponding dry residue being measured then from 1 hour to 4 hours after administration. […] These increases are significant.
2. Choleretic Activity--Intra-Peritoneal Administration
The choleretic activities of catechin and catechin pentacetyl ferulate were determined in the manner described in paragraph A above.

[3] = Choleretic activity in the rat, oral administration (bile volume and dry residue); assay type: in vivo, Sprague Dawley rats; details: 200 mg/kg per os; for Bile Volume 2 Hours after Treatment / Dry Residue 2 Hours after Treatment / Bile Volume 3 Hours after Treatment / Dry Residue 3 Hours after Treatment: awake rat
Protocol: as §1
1. Choleretic Activity--Oral Administration
The choleretic activities of catechin and epicatechin were determined in the manner described in paragraph A above except that the substances under test were administered per os at the rate of 200 mg./kg.

[4] = Olive oil-induced hyperlipaemia in the rat (plasma triglycerides); assay type: in vivo, Sprague Dawley rats; details: for Triglycerides: 100 mg/kg per os, controls (water) 171.5±18.6; for hypolipaemic effect (in words): Table 3, 100 mg/kg per os; for diminution of the concentration of triglycerides in the plasma in comparison with the controls: 100 mg/kg orally, two treatments, 2 h before and 2 h after olive oil, significant
Protocol: The hyperlipaemic activity was determined in Sprague Dawley rats of mean weight of 160 g., in which hyperlipaemia was induced by means of administration of 20 ml./kg. of olive oil orally in animals which had been fasting for 16 hours. Two treatments were effected with the products under examination (upon groups of 18 animals), the first two hours before the olive oil, the second two hours afterwards. The doses were administered orally and were equal to 100 mg./kg.
3. Hypolipaemic Effect--Effect on Olive Oil-Induced Hyperlipaemia
The hypolipaemic activity of catechin and epicatechin was determined in the manner described in paragraph B1 above.

[5] = Triton hyperlipaemia in the rat (plasma cholesterol and triglycerides); assay type: in vivo, Sprague Dawley rats; details: 100 mg/kg i.p. (50 mg/kg immediately after Triton, 50 mg/kg after 4 hours); significant
Protocol: The products under examination were injected intraperitoneally at the dosage of 100 mg./kg. of which 50 mg./kg. immediately after the Triton and 50 mg./kg. after 4 hours. After a further 4 hours the animals were slaughtered and the cholesterol and triglycerides in the plasma were measured.

[6] = Lipidic metabolism in the normally fed rat (plasma free fatty acids); assay type: in vivo, Sprague Dawley rats; details: single dose 100 mg/kg i.p., after two hours; normolipaemic rats; significant
Protocol: The tests were conducted on Sprague Dawley rats of mean weight of 200 g. which were normolipaemic and to which the products had been administered intraperitoneally in a single dose of 100 mg./kg. After two hours the animals were slaughtered and the free fatty acids in the plasma were measured.

[7] = epicatechin compared with catechin

| SMILES | Bile Volume 3 Hours after Treatment [2] [mL] | Dry Residue 3 Hours after Treatment [2] [mg] | increase of the dry residue of the bile in comparison with the basal values [2] [%] | increase of the volume of the bile in comparison with the basal values [2] [%] | choleretic action (in words) [2] | Bile Volume 2 Hours after Treatment [3] [mL] | Dry Residue 2 Hours after Treatment [3] [mg] | Bile Volume 3 Hours after Treatment [3] [mL] | Dry Residue 3 Hours after Treatment [3] [mg] | Triglycerides [4] [mg/100 ml] | hypolipaemic effect (in words) [4] | diminution of the concentration of triglycerides in the plasma in comparison with the controls [4] [%] | diminution of the concentration of cholesterol in the plasma in comparison with the controls [5] [%] | diminution of the concentration of triglycerides in the plasma in comparison with the controls [5] [%] | diminution of the concentration of free fatty acids in the plasma in comparison with the controls [6] [%] | further results |
| --- | --- | --- | --- | --- | --- | --- | --- | --- | --- | --- | --- | --- | --- | --- | --- | --- |
| COc1cc(C=CC(=O)Oc2cc(OC(=O)C=Cc3ccc(OC(C)=O)c(OC)c3)c3c(c2)O[C@H](c2ccc(OC(=O)C=Cc4ccc(OC(C)=O)c(OC)c4)c(OC(=O)C=Cc4ccc(OC(C)=O)c(OC)c4)c2)[C@@H](OC(=O)C=Cc2ccc(OC(C)=O)c(OC)c2)C3)ccc1OC(C)=O [Catechin pentacetylferulate, catechin peracetylferulate] | 0.88 ± 0.05 | 15.6 ± 0.60 | 36 | 64 | marked choleretic action |  |  |  |  |  |  |  |  |  |  | LD50 i.p. ([1]; i.p.): > 1000 mg/kg |
| Oc1cc(O)c2c(c1)O[C@H](c1ccc(O)c(O)c1)[C@@H](O)C2 [Catechin, catechin, reference compound] | 0.62 ± 0.08 | 10.0 ± 4.20 |  |  | no statistically significant choleretic effect | 0.84 ± 0.02 | 18.2 ± 0.37 | 0.81 ± 0.03 | 16.6 ± 0.81 | 120.7±17.6 | no statistically significant hypolipaemic effect |  |  |  |  | LD50 ([1]; ip, read-out: LD50 i.p.): > 1000 mg/kg; LD50 ([1]; po, per os, read-out: LD50 per os): > 2000 mg/kg |
| Oc1cc(O)c2c(c1)O[C@H](c1ccc(O)c(O)c1)[C@H](O)C2 [Epicatechin, epicatechin] |  |  | 35 | 38 |  | 1.02 ± 0.07 | 18.1 ± 2.0 | 0.89 ± 0.09 | 16.5 ± 2.13 | 98.6±12.0 | marked hypolipaemic effect | 42 |  |  |  | choleretic activity (in words) [3, 7]: markedly higher choleretic activity than catechin; duration of choleretic effect (in words) [3, 7]: the choleretic effect is of longer duration |
| CC(=O)Oc1cc(OC(C)=O)c2c(c1)O[C@H](c1ccc(OC(C)=O)c(OC(C)=O)c1)[C@@H](OC(C)=O)C2 [Example 4, Catechin pentaacetate] |  |  |  |  |  |  |  |  |  |  |  |  | 16.3 | 23.1 |  |  |
| CC1(C)Oc2ccc([C@H]3Oc4cc(O)cc(O)c4C[C@@H]3O)cc2O1 [catechin acetonide] |  |  |  |  |  |  |  |  |  |  |  |  |  |  | 25.8 |  |
| O=C(Oc1cc(OC(=O)c2cccnc2)c2c(c1)O[C@H](c1ccc(OC(=O)c3cccnc3)c(OC(=O)c3cccnc3)c1)[C@@H](OC(=O)c1cccnc1)C2)c1cccnc1 [pernicotinylcatechin] |  |  |  |  |  |  |  |  |  |  |  | 27 | 21.1 | 28.7 | 13.1 |  |
